# Measurements reported in ChEMBL document CHEMBL1201862, “PubChem BioAssay data set” (2004).
# Activity calls are given as the source filed them.
# Experiments:
# cells [1] = format: functional, cell-based
# [2] = biological target: T1, Trace amine-associated receptor 1 (Homo sapiens, UniProt Q96RJ0); assay: Fluorescence-based cell-based high throughput dose response assay to identify agonists of the human trace amine associated receptor 1 (TAAR1).; format: functional
# [3] = biological target: T1, Trace amine-associated receptor 1; assay: Counterscreen for agonists of the human trace amine associated receptor 1 (hTAAR1): Fluorescence-based cell-based high throughput dose response assay to identify hTAAR1 agonist that also desensitize TAAR1 receptor response.; format: functional
# cells [4] = format: functional, cell-based; remark: listed apart in the source
# [5] = biological target: Luciferin 4-monooxygenase (Photinus pyralis, UniProt P08659); assay: inhibition of purified Photinus pyralis luciferase – biochemical, luminescence, dose response (AID 1891)
# Chain of Luciferin 4-monooxygenase (P08659 whole entry): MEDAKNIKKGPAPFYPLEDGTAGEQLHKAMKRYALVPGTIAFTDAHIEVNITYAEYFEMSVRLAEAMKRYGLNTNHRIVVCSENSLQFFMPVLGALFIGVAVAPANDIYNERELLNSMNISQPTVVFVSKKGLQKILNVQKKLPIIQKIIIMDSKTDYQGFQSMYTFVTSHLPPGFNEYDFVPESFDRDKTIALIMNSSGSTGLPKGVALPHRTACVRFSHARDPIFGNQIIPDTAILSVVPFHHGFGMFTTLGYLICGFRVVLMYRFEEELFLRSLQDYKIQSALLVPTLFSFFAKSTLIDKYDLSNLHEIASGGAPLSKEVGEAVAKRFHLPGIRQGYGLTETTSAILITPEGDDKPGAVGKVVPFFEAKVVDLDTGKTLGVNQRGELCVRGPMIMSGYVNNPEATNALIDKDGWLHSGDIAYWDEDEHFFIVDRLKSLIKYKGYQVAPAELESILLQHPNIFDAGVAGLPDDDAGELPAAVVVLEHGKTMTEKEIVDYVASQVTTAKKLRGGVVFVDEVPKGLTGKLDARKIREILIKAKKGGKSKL
# [6] = Luminescence Cell-Based Dose Confirmation HTS to Identify Inhibitors of Platelet Dense Granule Release. [Related pubchem assays: 1663 (Primary HTS), 1678 (Summary of Project)]; format: functional
# Beta-galactosidase = Beta-galactosidase (Escherichia coli, UniProt Q8VNN2); assay: Dose response counterscreen for EBI2 assay utilizing the enzyme, b-galactosidase.; format: functional
# Chain of Beta-galactosidase (Q8VNN2 whole entry, the tested form may be a part): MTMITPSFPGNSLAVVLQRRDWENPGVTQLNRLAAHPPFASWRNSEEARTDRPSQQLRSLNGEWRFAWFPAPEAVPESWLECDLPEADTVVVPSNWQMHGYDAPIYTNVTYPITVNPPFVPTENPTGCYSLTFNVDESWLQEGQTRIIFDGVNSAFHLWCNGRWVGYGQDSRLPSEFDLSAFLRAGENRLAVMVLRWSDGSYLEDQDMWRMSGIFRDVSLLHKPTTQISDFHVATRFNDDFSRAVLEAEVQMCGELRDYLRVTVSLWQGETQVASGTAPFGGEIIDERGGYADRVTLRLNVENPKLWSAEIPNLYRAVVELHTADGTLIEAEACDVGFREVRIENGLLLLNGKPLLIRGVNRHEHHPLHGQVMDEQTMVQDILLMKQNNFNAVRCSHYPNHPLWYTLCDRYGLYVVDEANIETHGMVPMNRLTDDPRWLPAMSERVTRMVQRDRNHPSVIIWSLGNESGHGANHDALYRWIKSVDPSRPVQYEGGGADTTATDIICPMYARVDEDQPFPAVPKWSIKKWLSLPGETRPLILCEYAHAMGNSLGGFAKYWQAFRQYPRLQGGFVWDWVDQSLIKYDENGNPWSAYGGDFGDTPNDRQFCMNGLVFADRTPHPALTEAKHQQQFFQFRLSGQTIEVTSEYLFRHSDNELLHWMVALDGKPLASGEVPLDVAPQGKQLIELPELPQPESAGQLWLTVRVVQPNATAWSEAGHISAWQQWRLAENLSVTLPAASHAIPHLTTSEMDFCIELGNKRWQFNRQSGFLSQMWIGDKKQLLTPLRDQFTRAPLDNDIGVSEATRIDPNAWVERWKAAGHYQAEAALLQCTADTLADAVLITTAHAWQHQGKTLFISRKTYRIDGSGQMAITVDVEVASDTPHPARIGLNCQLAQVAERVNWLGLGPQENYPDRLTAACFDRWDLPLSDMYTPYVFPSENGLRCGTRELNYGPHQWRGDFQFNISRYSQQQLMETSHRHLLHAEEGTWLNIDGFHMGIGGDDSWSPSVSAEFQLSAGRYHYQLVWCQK
# [7] = biological target: T2, Oxysterols receptor LXR-beta (Homo sapiens, UniProt P55055); format: functional, cell-based;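 also: Cell-based luminescence dose-response assay of agonist activity at LXR, run as a confirmatory counterscreen to a daf-12 agonist screen; HEK293 cells with Gal4-LXR fusion and GAL4-driven luciferase reporter; agonist potency from rising luciferase signal of a Gal4-LXR reporter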
# T2 sequence (P55055 whole entry): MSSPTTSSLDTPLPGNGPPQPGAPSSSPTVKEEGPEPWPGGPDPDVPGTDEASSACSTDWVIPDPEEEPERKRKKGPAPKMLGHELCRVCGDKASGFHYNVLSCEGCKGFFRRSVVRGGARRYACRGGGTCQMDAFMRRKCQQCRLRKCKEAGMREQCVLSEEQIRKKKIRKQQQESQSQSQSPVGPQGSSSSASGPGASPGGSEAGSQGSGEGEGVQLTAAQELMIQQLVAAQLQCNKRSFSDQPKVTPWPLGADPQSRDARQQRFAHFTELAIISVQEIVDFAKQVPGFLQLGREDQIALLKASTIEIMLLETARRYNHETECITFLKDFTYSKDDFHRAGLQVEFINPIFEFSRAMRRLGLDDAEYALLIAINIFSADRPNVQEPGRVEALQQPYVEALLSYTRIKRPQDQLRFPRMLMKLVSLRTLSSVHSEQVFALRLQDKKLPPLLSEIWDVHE
# cells [8] = assay: cells
# [9] = biological target: Fructose-bisphosphate aldolase (Mycobacterium tuberculosis, UniProt P9WQA3); assay: Fluorescence-based biochemical high throughput dose response assay for inhibitors of the fructose-bisphosphate aldolase (FBA) of M. tuberculosis.; format: functional
# Chain of Fructose-bisphosphate aldolase (P9WQA3 whole entry): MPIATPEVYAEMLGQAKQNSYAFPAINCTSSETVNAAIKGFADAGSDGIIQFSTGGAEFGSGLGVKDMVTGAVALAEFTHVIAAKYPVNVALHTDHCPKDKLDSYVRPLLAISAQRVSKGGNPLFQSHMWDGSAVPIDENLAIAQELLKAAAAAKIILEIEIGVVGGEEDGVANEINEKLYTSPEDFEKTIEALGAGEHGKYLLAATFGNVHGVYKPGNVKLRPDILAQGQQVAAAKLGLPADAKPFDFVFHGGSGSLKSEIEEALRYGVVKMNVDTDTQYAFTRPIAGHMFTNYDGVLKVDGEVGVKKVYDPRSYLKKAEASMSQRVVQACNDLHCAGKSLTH
# [10] = HGIII-sPLA2 enzyme inhibition potency – biochemical, QFRET, IC50, dose response (AID 743457);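 also: green fluorescence rise as the enzyme cleaves BODIPY PC-A2 in liposomes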
# [11] = system: Streptococcus sp. 'group A'; assay: Streptococcus pyogenes SK(-)GAS viability under kanamycin – luminescence, BacTiterGlo, confirmation, counter-screen for streptokinase expression inhibitor project, dose response (AID 1900); format: functional, organism-based
# Streptokinase A = biological target: T3, Streptokinase A (Streptococcus pyogenes serotype M1, UniProt P10520); assay: viability-normalized secreted streptokinase activity reduction – plasminogen activation absorbance, OD405, dose response (AID 1914); format: functional, Streptococcus pyogenes M1 GAS;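 also: secreted streptokinase activity via plasminogen activation per viability signal from cell pellet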
# T3 sequence (P10520 whole entry): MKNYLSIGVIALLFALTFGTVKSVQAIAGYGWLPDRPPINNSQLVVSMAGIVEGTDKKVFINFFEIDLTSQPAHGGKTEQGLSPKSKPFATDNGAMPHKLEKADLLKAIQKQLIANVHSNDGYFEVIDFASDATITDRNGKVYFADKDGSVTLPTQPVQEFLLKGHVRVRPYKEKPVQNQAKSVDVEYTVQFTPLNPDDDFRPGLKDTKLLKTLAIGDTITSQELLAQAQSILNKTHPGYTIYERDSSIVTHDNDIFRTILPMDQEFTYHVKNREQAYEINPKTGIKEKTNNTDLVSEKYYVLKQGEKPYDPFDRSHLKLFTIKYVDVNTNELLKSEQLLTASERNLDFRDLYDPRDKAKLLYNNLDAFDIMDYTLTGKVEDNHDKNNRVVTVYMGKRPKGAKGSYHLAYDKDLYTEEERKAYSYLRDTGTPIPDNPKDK
# Streptococcus = assay: GAS UMAA2166 growth inhibition – luminescence, BacTiterGlo, counter-screen for streptokinase expression inhibitor project, dose response (AID 1915); format: functional, organism-based;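 also: potency for reduction of bacterial viability or growth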
# Mu-type opioid receptor = Mu-type opioid receptor (Homo sapiens, UniProt P35372); format: functional, cell-based;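 also: U2OS cells with beta-arrestin recruitment to OPRM1 by beta-gal complementation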
# Chain of Mu-type opioid receptor (P35372 whole entry): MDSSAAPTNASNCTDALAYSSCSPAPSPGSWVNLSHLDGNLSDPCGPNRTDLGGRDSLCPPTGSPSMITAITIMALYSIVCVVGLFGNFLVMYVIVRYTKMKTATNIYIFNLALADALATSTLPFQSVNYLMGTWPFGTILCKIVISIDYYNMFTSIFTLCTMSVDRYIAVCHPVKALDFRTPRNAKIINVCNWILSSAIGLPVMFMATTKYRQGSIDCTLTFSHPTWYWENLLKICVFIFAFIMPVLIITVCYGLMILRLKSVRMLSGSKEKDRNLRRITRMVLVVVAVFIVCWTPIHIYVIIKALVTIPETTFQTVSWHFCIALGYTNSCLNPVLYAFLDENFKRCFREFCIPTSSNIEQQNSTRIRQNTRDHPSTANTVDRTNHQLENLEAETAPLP
# [12] = biological target: 5-hydroxytryptamine receptor 2A (Mus musculus, UniProt P35363); format: functional, cell-based;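 also: CHO-K1 cells with tagged receptor and beta-arrestin; agonist potency measured as compound-induced activation of the receptor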
# Chain of 5-hydroxytryptamine receptor 2A (P35363 whole entry): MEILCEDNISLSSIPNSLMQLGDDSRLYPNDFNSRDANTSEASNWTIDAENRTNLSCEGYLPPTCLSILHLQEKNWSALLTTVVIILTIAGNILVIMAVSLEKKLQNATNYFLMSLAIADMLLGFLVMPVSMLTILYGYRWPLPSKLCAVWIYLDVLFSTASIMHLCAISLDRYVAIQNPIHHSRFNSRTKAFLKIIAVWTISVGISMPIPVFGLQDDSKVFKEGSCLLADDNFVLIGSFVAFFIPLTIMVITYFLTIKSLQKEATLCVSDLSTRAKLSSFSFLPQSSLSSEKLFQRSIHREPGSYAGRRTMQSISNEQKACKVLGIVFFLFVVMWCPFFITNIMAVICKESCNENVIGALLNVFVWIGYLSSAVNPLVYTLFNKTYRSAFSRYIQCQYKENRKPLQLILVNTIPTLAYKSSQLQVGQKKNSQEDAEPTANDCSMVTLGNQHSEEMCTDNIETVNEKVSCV
# [13] = Late stage assay provider results from the probe development effort to identify selective inhibitors of heat shock protein 90 (HSP90): Absorbance-based cell proliferation assay in SKBR3 cells.; format: functional; conditions: SK-BR-3
# [14] = Luminescence Cell-Based Dose Confirmation HTS to Identify Activators of 5'UTR Stem-Loop Driven Alpha-Synuclein mRNA Translation in H4 Neuroglioblastoma Cells. [Related pubchem assays: 1829 (Project Summary), 1814 (Primary HTS)]; format: functional
# [15] = Luminescence Cell-Based Dose Response HTS to Identify Activators of Luciferase Translation or Activity in H4 […] Cells. [Related pubchem assays: 1829 (Project Summary), 1814 (Primary HTS)]; format: functional
# H4 = assay: Luminescence Cell-Based Dose Response HTS to Identify Activators of 5'UTR Stem-Loop Driven Prion Protein mRNA Translation in H4 Neuroglioblastoma Cells. [Related pubchem assays: 1829 (Project Summary), 1814 (Primary HTS)]; format: functional; conditions: Homo sapiens
# [16] = biological target: T4, Calpain-2 catalytic subunit (Sus scrofa, UniProt P43367); assay: m-calpain protease blockers, concentration series – biochemical, fluorogenic peptide substrate, dose response (AID 1420); format: functional
# T4 sequence (P43367 whole entry): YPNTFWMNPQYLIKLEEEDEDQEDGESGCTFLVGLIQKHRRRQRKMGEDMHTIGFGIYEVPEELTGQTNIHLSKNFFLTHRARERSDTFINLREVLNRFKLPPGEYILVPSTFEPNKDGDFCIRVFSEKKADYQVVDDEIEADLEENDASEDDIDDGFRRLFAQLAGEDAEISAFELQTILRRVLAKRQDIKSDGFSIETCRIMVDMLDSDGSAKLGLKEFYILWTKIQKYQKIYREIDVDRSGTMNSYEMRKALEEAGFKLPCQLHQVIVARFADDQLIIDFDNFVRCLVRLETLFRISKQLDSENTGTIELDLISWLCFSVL
# [17] = blockers of HIV-1 envelope-mediated cell-cell fusion – cherry-pick, dose response (AID 652057); format: functional, cell-based
# [18] = HIV-1 AD8 envelope cell-cell fusion blockers – cherry-pick, dose response (AID 652062); format: functional, cell-based;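 also: luciferase signal from cell-cell fusion driven by HIV-1 clade B AD8 Env; potency is for inhibitors of fusion seen as a drop in luminescence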
# [19] = biological target: 1-phosphatidylinositol 4,5-bisphosphate phosphodiesterase gamma-1 (Homo sapiens, UniProt P19174); assay: Counterscreen for inhibitors of phospholipase C isozymes (PLC-B3): Fluorescence-based biochemical high throughput dose response assay to identify inhibitors of phospholipase C isozymes (PLC-gamma1).
# [20] = biological target: 1-phosphatidylinositol 4,5-bisphosphate phosphodiesterase beta-3 (Homo sapiens, UniProt Q01970); assay: Fluorescence-based biochemical high throughput dose response assay to identify inhibitors of phospholipase C isozymes (PLC-B3).
# Chain of 1-phosphatidylinositol 4,5-bisphosphate phosphodiesterase beta-3 (Q01970 whole entry): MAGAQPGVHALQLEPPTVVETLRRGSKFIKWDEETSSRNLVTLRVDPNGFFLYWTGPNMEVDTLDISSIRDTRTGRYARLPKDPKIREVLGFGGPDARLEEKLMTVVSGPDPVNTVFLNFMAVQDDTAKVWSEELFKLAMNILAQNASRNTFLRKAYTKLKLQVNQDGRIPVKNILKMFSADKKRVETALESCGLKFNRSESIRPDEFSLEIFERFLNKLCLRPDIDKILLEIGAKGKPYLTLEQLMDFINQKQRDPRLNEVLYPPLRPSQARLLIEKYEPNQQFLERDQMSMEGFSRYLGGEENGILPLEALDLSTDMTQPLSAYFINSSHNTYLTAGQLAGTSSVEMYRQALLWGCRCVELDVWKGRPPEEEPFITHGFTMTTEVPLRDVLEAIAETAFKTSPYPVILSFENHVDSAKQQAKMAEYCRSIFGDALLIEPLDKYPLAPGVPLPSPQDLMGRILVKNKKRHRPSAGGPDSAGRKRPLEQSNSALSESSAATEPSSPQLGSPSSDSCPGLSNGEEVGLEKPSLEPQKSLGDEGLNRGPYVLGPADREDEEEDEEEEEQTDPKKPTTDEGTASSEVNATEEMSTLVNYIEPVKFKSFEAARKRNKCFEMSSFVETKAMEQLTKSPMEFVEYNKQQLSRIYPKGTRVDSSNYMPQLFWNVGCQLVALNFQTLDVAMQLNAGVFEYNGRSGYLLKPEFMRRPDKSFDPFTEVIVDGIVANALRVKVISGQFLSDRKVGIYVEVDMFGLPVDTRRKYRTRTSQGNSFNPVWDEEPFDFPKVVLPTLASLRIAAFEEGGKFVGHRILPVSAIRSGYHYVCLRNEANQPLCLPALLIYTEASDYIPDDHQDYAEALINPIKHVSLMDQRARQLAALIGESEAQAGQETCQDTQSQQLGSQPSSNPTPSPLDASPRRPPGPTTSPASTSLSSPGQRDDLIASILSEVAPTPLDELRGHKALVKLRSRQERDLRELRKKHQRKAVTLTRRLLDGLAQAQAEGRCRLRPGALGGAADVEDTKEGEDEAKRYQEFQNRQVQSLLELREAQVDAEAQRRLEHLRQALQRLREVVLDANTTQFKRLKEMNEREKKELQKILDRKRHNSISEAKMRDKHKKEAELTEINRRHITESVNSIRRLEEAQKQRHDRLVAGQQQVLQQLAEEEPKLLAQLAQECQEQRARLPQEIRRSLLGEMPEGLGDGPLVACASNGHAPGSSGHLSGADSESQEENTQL
# [21] = biological target: COUP transcription factor 2 (Homo sapiens, UniProt P24468); assay: Luminescence-based cell-based high throughput dose response assay to identify inhibitors of COUP-TFII (NR2F2).; format: functional;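 also: HEK293 cells transiently cotransfected with COUP-TFII expression vector and reporter; luciferase reporter luminescence driven by COUP-TFII from the pX2-168 reporter plasmid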
# Chain of COUP transcription factor 2 (P24468 whole entry): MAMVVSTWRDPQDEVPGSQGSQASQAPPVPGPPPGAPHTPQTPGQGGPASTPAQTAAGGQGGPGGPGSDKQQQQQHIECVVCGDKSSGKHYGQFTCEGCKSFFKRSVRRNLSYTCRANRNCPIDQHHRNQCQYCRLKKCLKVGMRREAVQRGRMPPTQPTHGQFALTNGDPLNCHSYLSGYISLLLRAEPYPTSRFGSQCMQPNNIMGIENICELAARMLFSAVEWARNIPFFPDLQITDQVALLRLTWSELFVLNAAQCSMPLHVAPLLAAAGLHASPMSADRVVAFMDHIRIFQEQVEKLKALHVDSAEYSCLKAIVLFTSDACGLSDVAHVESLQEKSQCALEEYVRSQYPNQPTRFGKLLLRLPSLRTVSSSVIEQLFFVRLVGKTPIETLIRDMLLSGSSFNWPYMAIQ
# T1 sequence (Q96RJ0 whole entry): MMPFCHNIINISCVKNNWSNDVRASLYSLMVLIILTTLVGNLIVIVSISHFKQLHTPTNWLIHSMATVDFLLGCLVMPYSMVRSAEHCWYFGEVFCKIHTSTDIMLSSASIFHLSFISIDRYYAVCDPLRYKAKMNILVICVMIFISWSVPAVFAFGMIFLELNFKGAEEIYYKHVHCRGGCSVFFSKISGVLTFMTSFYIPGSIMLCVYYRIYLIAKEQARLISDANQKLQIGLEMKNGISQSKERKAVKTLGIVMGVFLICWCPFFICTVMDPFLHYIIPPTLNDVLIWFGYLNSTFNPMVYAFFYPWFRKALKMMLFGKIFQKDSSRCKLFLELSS
structure (smiles),measurement,setting,value
CCOC(=O)C(NC(=O)CC)(N1CCc2ccccc2C1)C(F)(F)F (stereo unspecified),IC50,cells [1],> 29.9 µM (inactive)
same,EC50,[2],0.125 µM (active)
same,IC50,[3],1.03 µM (active)
same,EC50,cells [4],> 29.9 µM (inactive)
CNC(=O)/C(C#N)=C/c1ccc(-c2nc3ccccc3s2)o1,EC50,[5],> 112 µM (not active)
same,EC50,[6],> 112 µM (not active)
same,IC50,Beta-galactosidase,> 80 µM (inactive)
CCCC#Cc1ccc2c(c1)COc1c3ccccc3nn1-2,EC50,[7],> 67.5 µM (inactive)
same,EC50,cells [8],> 67.5 µM (inactive)
CCCn1c(-c2cc(OC)c(OC)c(OC)c2)nc2c1c(=O)[nH]c(=O)n2Cc1ccccc1,IC50,[9],1.32 µM (active)
O=C(NNC(=S)Nc1ccccc1)NNC(=S)Nc1ccccc1,IC50,[10],> 122 µM (inactive)
Nc1nc(CN2CCN(c3ccccc3)CC2)nc(N2CCCc3ccccc32)n1,EC50,[11],9.04 µM (active)
same,EC50,Streptokinase A,> 150 µM (not active)
same,EC50,Streptococcus,> 150 µM (not active)
same,EC50,Mu-type opioid receptor,92.5 µM (inactive)
same,EC50,[12],0.939 µM (active)
COC(=O)c1ccc2nc(NC(=O)C3CCCCC3)sc2c1,IC50,[13],51.6 µM (inactive)
O=C(Nc1nc(COc2ccccc2)cs1)C12CC3CC(CC(C3)C1)C2,EC50,[14],26.8 µM (active)
same,EC50,[15],20.7 µM (active)
same,EC50,H4,19 µM (active)
same,IC50,[16],2.03 µM (not active)
same,AC50,[17],49.8 µM (active)
same,AC50,[18],34.9 µM (active)
same,IC50,[19],> 123 µM (inactive)
same,IC50,[20],> 123 µM (inactive)
CC1(C)CC(=O)C=C(c2ccc(-c3cnc4ccccc4c3)cc2)C1=O,IC50,[21],4.87 µM (active)
